This is an account of results in ChEMBL document CHEMBL1150705, “Plant anticancer agents XLIV. Cytotoxic constituents from Stizophyllum riparium” (1987).

Structures are written as SMILES. Values after ≈ are worked out from the molar mass of the structure shown.

The experiment relates to P388. Nature of the experiment: Cytotoxicity against mouse P388 cells. Type of experiment: functional. Particulars: read-out: ED50 (the source's name).

`CC(=O)C1=CC[C@H]2C3=CCC4=C[C@@H](O)[C@H](O)C[C@]4(C)[C@H]3C[C@@H](O)[C@]12C` [STIZOPHYLLIN]: the EC50 was determined as 0.07 µg/mL (≈ 0.203 µM).
